Reference: patent US7595158B2, “Bcl2L12 polypeptide activators and inhibitors” (Dana-Farber Cancer Institute, Inc., priority 2003, dated 2009)

Assays:
Type in all cases: cell-based, human
LNZ308 cells = assay: STS-induced DNA fragmentation (sub-G1, FACS) in LNZ308 cells; settings: LNZ308, 2.0 μM STS; control siRNA about 30 percent
Protocol: (§1) LNZ308 and LN443 glioma cell lines transfected with control siRNA, Bcl2L12-targeting siRNA #4, or Bcl2L12-targeting siRNA #5 were treated with 0, 0.2, 0.5, 1.0, or 2.0 μM STS. DNA-fragmentation was assessed by quantifying sub-G1 peaks using FACS analysis. siRNA-mediated knockdown of Bcl2L12 polypeptide sensitized the glioma cell lines to STS-induced apoptosis. […] The maximum percent DNA fragmentation was about 30 percent, 45 percent, and 55 percent in LNZ308 cells transfected with control siRNA, siRNA #4, or siRNA #5, respectively, and treated with 2.0 μM STS (FIG. 10B). […] The maximum percent DNA fragmentation was about 40 percent, 60 percent, and 75 percent in LN443 cells transfected with control siRNA, siRNA #4, or siRNA #5, respectively, and treated with 2.0 μM STS (FIG. 10C).
LNZ308 cells co-transfected with pcDNA3-GFP and either pSHAG-A or pSHAG-B were treated with 0.1 or 0.5 μM of STS for 24 hours, and DNA fragmentation was assessed.

Bcl2L12 polypeptide = assay: Endogenous Bcl2L12 polypeptide expression in U87MG cells (Western blot, immunofluorescence); settings: 48 hours post transfection, anti-L12-1 Western blot
Protocol: Down-regulation of Bcl2L12 polypeptide expression via RNA interference was assessed in U87MG cells. Briefly, U87MG cells were co-transfected (1:10 ratio) with 0.5 μg of vector encoding GFP and 5 μg of either pSHAG-Control, pSHAG-Bcl2L12-A, pSHAG-Bcl2L12-B, or pSHAG-Bcl2L12-A+-B. Once transfected, the cells expressing GFP were sorted out by FACS analysis. […] The FACS-sorted cells were assessed for Bcl2L12 polypeptide expression. […] The FACS-sorted cells also were seeded in 24-well plates at a density of 1×10^5 cells, grown in 10% FBS-DMEM, and counted every day for three days.
In another experiment, total cellular lysates of U87MG cells transfected with control siRNA, Bcl2L12-targeting siRNA #4, or Bcl2L12-targeting siRNA #5 were harvested 48 hours post transfection and subjected to western blot analysis using the anti-L12-1 antibody (1 μg/mL).
The following experiments were performed to characterize the anti-Bcl2L12 polypeptide antibodies. U87MG cells stably expressing control or Bcl2L12-targeting shRNA (shL12-1) were subjected to deconvolution immunofluorescence microscopy using the anti-L12-2 antiserum. Cells were counterstained with DAPI. […]
The potential anti-oncogenic impact of Bcl2L12 polypeptide knockdown was assessed in the U87MG human glioma model system. […] Bcl2L12 polypeptide expression was analyzed by western blotting using the anti-L12-1 antibody. […]

LN443 cells = assay: STS-induced DNA fragmentation (sub-G1, FACS) in LN443 cells; settings: LN443, 2.0 μM STS; control siRNA about 40 percent
Protocol: as §1

pro-caspase-7 = assay: Anti-L12-2 immunoprecipitation from U87MG cells, Western blot for caspase-7; settings: anti-L12-2 immunoprecipitates
Protocol: To define further the molecular actions of Bcl2L12 polypeptides, the physical interactions with key post-mitochondrial apoptosis signaling molecules were assessed. Anti-L12-2 immunoprecipitates from lysates of LNZ308, U87MG, and 293T cells were subjected to western blot analysis for procaspases 7 and 3 and cytochrome c. Briefly, cells were lysed in IP buffer. Cleared supernatants were incubated with prebleed serum (8 μl) coupled to Protein A-sepharose 4B beads (Sigma) for 1 hour and subsequently with anti-L12-2 antiserum (8 μl) for 1 to 2 hours. For western blot analyses, polypeptides were separated by 4-12% SDS-PAGE, transferred to Hybond PVDF membranes (Amersham), blocked with 5% milk in phosphate-buffered saline with 0.05% Tween 20 (PBS/Tween) for 1 hour, washed with PBS/Tween and incubated with anti-cytochrome c antibodies (0.5 μg/ml; BD Pharmingen), anti-caspase-7 antibodies (0.5 μg/ml, BD Pharmingen), or anti-caspase-3 anitbodies (0.25 μg/ml, BD Transduction Laboratories) in PBS/Tween 20 with 5% milk. The blots were washed with PBS/Tween and developed with goat anti-rabbit IgG (1:10,000) or with goat anti-mouse antibodies (1:10,000) (Pierce) in 5% milk PBS/Tween. […] 1/40 of the lysate used for the immunoprecipitation was loaded to quantify the amount of co-immunoprecipitated caspase-7. […]

[1] = tested on: caspases 2, 3/7, 6, 8, and 9; assay: Caspase activity profile with fluorogenic peptide substrates in LNZ308 cells; settings: LNZ308, STS 24 hours
Protocol: LNZ308 cells were transfected with control or siRNA oligonucleotide #5, and treated with STS for 24 hours. Subsequently, caspase activity was profiled using caspase-specific fluorogenic peptide substrates assessing the activity status of caspases 2, 3/7, 6, 8, and 9.

Substance | maximum percent DNA fragmentation (LNZ308 cells) [%] | Bcl2L12 polypeptide levels (Bcl2L12 polypeptide) | maximum percent DNA fragmentation (LN443 cells) [%] | co-immunoprecipated pro-caspase-7 (pro-caspase-7) | caspase activity [1]
siRNA #4: Bcl2L12-targeting siRNA oligonucleotide 5′-AAGCUGGUCCGCCUGUCCU-3′; SEQ ID NO:6 (chemistry not given here) | ~45 | significant reduction | ~60 | – | –
siRNA #5: Bcl2L12-targeting siRNA oligonucleotide 5′-UGGUGGAGCUGUUCUGUAG-3′; SEQ ID NO:7 (chemistry not given here) | ~55 | significant reduction | ~75 | significant decrease | enhanced caspase activity
